Test results published in ChEMBL document CHEMBL1121518, “Congeners of the beta conformer of dopamine derived from cis- and trans-octahydrobenzo[f]quinoline and trans-octahydrobenzo[g]quinoline” (1980).

biological target: T1, Alpha-1A adrenergic receptor (Homo sapiens) (UniProt P35348); experiment: Inhibitory activity against adrenergic alpha-receptor transmission, its effect being blocked by phentolamine; conditions: Felis catus
T1 sequence (whole entry): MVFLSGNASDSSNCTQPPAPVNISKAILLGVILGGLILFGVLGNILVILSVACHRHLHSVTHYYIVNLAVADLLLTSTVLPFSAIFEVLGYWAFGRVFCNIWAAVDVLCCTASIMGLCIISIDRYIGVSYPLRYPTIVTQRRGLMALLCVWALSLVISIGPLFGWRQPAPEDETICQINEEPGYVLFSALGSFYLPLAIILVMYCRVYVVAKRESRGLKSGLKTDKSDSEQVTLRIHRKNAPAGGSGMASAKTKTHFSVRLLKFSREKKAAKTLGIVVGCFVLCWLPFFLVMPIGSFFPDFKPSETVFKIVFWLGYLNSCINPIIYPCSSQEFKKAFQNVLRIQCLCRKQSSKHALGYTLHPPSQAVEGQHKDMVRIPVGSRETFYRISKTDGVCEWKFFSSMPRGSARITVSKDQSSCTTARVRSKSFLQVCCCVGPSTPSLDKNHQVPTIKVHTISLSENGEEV

Row | SMILES | Activity
1 | Br.CN1CCCC2c3cc(O)c(O)cc3CCC21 (cis isomer) | 2 mg/kg

tested on: Canis familiaris; experiment: Tested for mean heart rate in dog before drug administration; type: functional, Canis lupus familiaris; conditions: not given

Row | SMILES | Activity
2 | Br.CN1CCCC2c3cc(O)c(O)cc3CCC21 (cis isomer) | 174 beats min-1
3 | Br.CCN1CCCC2c3cc(O)c(O)cc3CCC21 (stereo unspecified) | 183 beats min-1
4 | Br.CCCN1CCC[C@@H]2c3cc(O)c(O)cc3CC[C@H]21 | 178 beats min-1
5 | CN1CCc2cccc3c2[C@H]1Cc1ccc(O)c(O)c1-3 [APOMORPHINE] | 139.2 beats min-1
6 | Br.CCN1CCC[C@@H]2c3cc(O)c(O)cc3CC[C@H]21 | 176.9 beats min-1
7 | Br.CCCN1CCCC2c3cc(O)c(O)cc3CCC21 (stereo unspecified) | 175.7 beats min-1
8 | Br.CN1CCC[C@@H]2c3cc(O)c(O)cc3CC[C@H]21 | 175.4 beats min-1

species: Canis familiaris; experiment: Tested for mean blood pressure in dog after ID50 dose; type: functional, Canis lupus familiaris; conditions: not given

Row | SMILES | Activity
9 | Br.CN1CCCC2c3cc(O)c(O)cc3CCC21 (cis isomer) | 95.4 mmHg
10 | Br.CCN1CCCC2c3cc(O)c(O)cc3CCC21 (stereo unspecified) | 89.8 mmHg
11 | Br.CCCN1CCC[C@@H]2c3cc(O)c(O)cc3CC[C@H]21 | 73.6 mmHg
12 | CN1CCc2cccc3c2[C@H]1Cc1ccc(O)c(O)c1-3 [APOMORPHINE] | 92 mmHg
13 | Br.CCN1CCC[C@@H]2c3cc(O)c(O)cc3CC[C@H]21 | 90.9 mmHg
14 | Br.CCCN1CCCC2c3cc(O)c(O)cc3CCC21 (stereo unspecified) | 82.9 mmHg
15 | Br.CN1CCC[C@@H]2c3cc(O)c(O)cc3CC[C@H]21 | 95.6 mmHg

species: Canis familiaris; experiment: Tested for mean heart rate in dog after ID50 dose; type: functional, Canis lupus familiaris; conditions: not given

Row | SMILES | Activity
16 | Br.CN1CCCC2c3cc(O)c(O)cc3CCC21 (cis isomer) | 158.6 beats min-1
17 | Br.CCN1CCCC2c3cc(O)c(O)cc3CCC21 (stereo unspecified) | 162.8 beats min-1
18 | Br.CCCN1CCC[C@@H]2c3cc(O)c(O)cc3CC[C@H]21 | 156.9 beats min-1
19 | CN1CCc2cccc3c2[C@H]1Cc1ccc(O)c(O)c1-3 [APOMORPHINE] | 128.9 beats min-1
20 | Br.CCN1CCC[C@@H]2c3cc(O)c(O)cc3CC[C@H]21 | 161.3 beats min-1
21 | Br.CCCN1CCCC2c3cc(O)c(O)cc3CCC21 (stereo unspecified) | 165 beats min-1
22 | Br.CN1CCC[C@@H]2c3cc(O)c(O)cc3CC[C@H]21 | 160.9 beats min-1

tested on: Canis familiaris; experiment: Tested for mean blood pressure in dog before drug administration; type: functional, Canis lupus familiaris; conditions: not given

Row | SMILES | Activity
23 | Br.CN1CCCC2c3cc(O)c(O)cc3CCC21 (cis isomer) | 125.8 mmHg
24 | Br.CCN1CCCC2c3cc(O)c(O)cc3CCC21 (stereo unspecified) | 115 mmHg
25 | Br.CCCN1CCC[C@@H]2c3cc(O)c(O)cc3CC[C@H]21 | 116.4 mmHg
26 | CN1CCc2cccc3c2[C@H]1Cc1ccc(O)c(O)c1-3 [APOMORPHINE] | 109.5 mmHg
27 | Br.CCN1CCC[C@@H]2c3cc(O)c(O)cc3CC[C@H]21 | 115.4 mmHg
28 | Br.CCCN1CCCC2c3cc(O)c(O)cc3CCC21 (stereo unspecified) | 114.9 mmHg
29 | Br.CN1CCC[C@@H]2c3cc(O)c(O)cc3CC[C@H]21 | 116.7 mmHg

species: Felis catus; experiment: Tested for inhibition of cardioaccelerator nerves of cat; type: functional; conditions: read-out: ID50 (the source's name)

Row | SMILES | ED50
30 | Br.CN1CCCC2c3cc(O)c(O)cc3CCC21 (cis isomer) | 0.31 µmol/kg
31 | Br.CCN1CCCC2c3cc(O)c(O)cc3CCC21 (stereo unspecified) | 0.45 µmol/kg
32 | Br.CCCN1CCC[C@@H]2c3cc(O)c(O)cc3CC[C@H]21 | 0.0013 µmol/kg
33 | CN1CCc2cccc3c2[C@H]1Cc1ccc(O)c(O)c1-3 [APOMORPHINE] | 0.022 µmol/kg
34 | Br.CCN1CCC[C@@H]2c3cc(O)c(O)cc3CC[C@H]21 | 0.0009 µmol/kg
35 | Br.CCCN1CCCC2c3cc(O)c(O)cc3CCC21 (stereo unspecified) | 0.26 µmol/kg
36 | Br.CN1CCC[C@@H]2c3cc(O)c(O)cc3CC[C@H]21 | 0.0055 µmol/kg
